Tests used:
[1] = tested on: MG132-induced mutant SOD1 intracellular aggregation in PC12-SOD1^G85R YFP cells; assay: Protection against MG132-induced mut-SOD1 intracellular aggregation (fluorescence microscopy); type: cell-based; conditions: PC12-SOD1^G85R YFP cells, 0.7 μM MG132, 72 h; Inactive = no decrease of aggregates at 10 μM vs vehicle
Procedure: The PC12 Tet-Off-SOD1^G85R YFP cells were cultured in DMEM media supplemented with 10 % horse serum, 5 % Tet-approved FBS, 1 % Penstrep, 1× L-glutamine, 200 μg/mL hygromycin, 100 μg/mL G418, with 1 μg/mL Doxycycline and were incubated at 37 °C in humidified air with […] until 90–95 % confluency. To induce the expression of SOD1^G85R YFP, the Doxycycline was removed at least 4 days before the experiment. To remove the Doxycycline, the media was removed, and the cells were washed 3 times with 1xPBS. The cells were then cultured in standard culture media without Doxycycline. To set up the assay, the cells were then seeded into 96-well cell culture plates (Greiner Bio-One Catalog #655090) at a concentration of 50,000 cells/well with a final volume of 100 μL/well and incubated in the CO2 incubator at 37 °C for 24 h. The media were removed from the cells and replaced with 100 μL of media containing 0.1 % DMSO or compounds, and incubated in the CO2 incubator at 37 °C for 6 h. The media were then replaced with fresh 100 μL of media containing the diluted compounds with 0.7 μM (−)-MG-132, and the plates were incubated for 72 h under culture conditions. After 72 h, the cells were stained with Hoescht 33,342 (55 μg/mL, 10 μL/well) and imaged (lex = 358, 513 nm) using a Molecular Devices ImageXpress Micro Confocal High-Content Imaging System equipped with a 40× objective. […] Image binning was set to 2. DAPI fluorescence was captured using an exposure time of 300 ms, and FITC fluorescence was captured using an exposure time of 400 ms. A 13-plane z-series was acquired for each field of view with a step size of 3 μm. For each condition, 2 sets of 9 images were generated in a 3 × 3 grid to separately image the SOD1^G85R YFP proteins and the nuclei stained with Hoescht 33,342. Image analysis was performed with MetaXpress software (Molecular Devices) using the Transfluor module. Parameters for puncta detection (aggregates) were set with a minimum pit width of 2 μm and a maximum pit width of 5 μm. Signal intensity thresholds were defined as 700 grayscale units above the local background. The analysis provided the average area of each cell that is covered by puncta (pit/cell), which are indicated by bright green spots on the SOD1^G85RYFP image set.
The assay was performed in triplicate for each condition tested, and wells containing the media with vehicle (0.1 % DMSO) or (−)-MG-132 alone were used as controls representing the minimum and maximum aggregate formation. […] The data for EC50 determination was treated with Prism and fitted using a semi-logarithmic curve for determination of the EC50 values of NU9 and compounds 4, 6, 20 and 21.

[2] = Microsomal metabolic stability, mouse; type: in vitro ADME; conditions: liver microsomes; for microsomal CLint at 1.1 μM: pH 7.4, 0.5 mg/mL; for half-life at 1.1 μM: pH 7.4, read-out: t1/2 (mouse)
Procedure: The assay was performed at Jubilant Biosys. Vials containing human or mouse microsomes were collected from the -80 °C freezer and thawed on ice. Then 27.5 μL of the initial microsome solutions (20 mg/mL) were diluted in 971.5 μL of a 67 mM potassium phosphate buffer solution (pH 7.4). The testing compounds were diluted in the buffered microsomal solution to obtain a final concentration of 1.1 μM. Then four different aliquots, each containing 180 μL of the assay solution, representing the samples at T = 0, T = 5, T = 15, and T = 30 min. The samples were pre-incubated at 37 °C for 5 min with gentle shaking, and then 20 μL of a NADPH solution (10 mM) was added to the different solutions of the test compounds. […] An aliquot of the supernatant (200 μL) was collected from each reaction sample and analyzed by LC-MS/MS. The Ln values of the peak area of the compounds to the internal standard over time (min.) were graphed using Excel, and the elimination rates of the compounds (k) were determined from the slopes obtained from the graphs. The k values were used to calculate the compounds half-life using the equation: t1/2=Ln2/k The intrinsic clearance (CLint) of each compound in the presence of mouse and human microsomes was calculated using the equation: […] Verapamil and Ketoconazole were used as controls to evaluate the assay performance. The results are presented as an average of two technical replicates.

[3] = tested on: PC12-SOD1^G85R YFP cells co-treated with MG132; assay: Viability screening against MG132-induced toxicity, CellTiter-Glo; type: cell-based; conditions: PC12-SOD1^G85R YFP cells co-treated with MG132 and the compounds; read-out: PC12-SOD1^G85R EC50, in vitro viability screening (protection against MG132-induced toxicity)
Procedure: The HepG2 and HEK293 cells were cultured in DMEM media supplemented with 10 % FBS (heat-inactivated), 1 % Pen-strep, and L-glutamine and incubated at 37 °C in humidified air with 5 % CO2 until 85–90 % confluency. The PC12 Tet-Off-SOD1^G85R YFP cells were maintained as described in 4.2. On the day before the experiments, the cells were transferred to white bottom 96 well plates (Greiner cat. 655,083) at a concentration of 50,000 cells/100 μL of media in each well and incubated overnight at 37 °C. Stock solutions of the compounds (30 mM) in DMSO were prepared and then diluted in media to obtain the six final working solutions starting at 30 μM, and serial dilutions were obtained with the lowest concentration at 0.25 μM. The media were removed and fresh media containing the compounds or the vehicle DMSO (0.1 % v/v) were transferred to the plates containing HepG2 and HEK293 cells and the plates were incubated for 24 or 48 h at 37 °C. The PC12 Tet-Off-SOD1^G85R YFP cells compound treatment was performed as described in section 4.2 and using a 9-point 2-fold serial dilution of the compounds starting at 15 μM and the lowest concentration at 0.05 μM. After incubation, the plates were cooled to room temperature and 25 μL of CellTiter-Glo® solution was added to each well. The plates were loaded into a BioTek Synergy H1 MD plate reader and shaken for 2 min, stabilized for 10 min without shaking, and then the luminescence values were read for each well (luminescence integration step 1 ms). Wells containing media with the vehicle DMSO with or without cells were used as controls to represent, respectively, the maximum viability and the lowest viability (background signal) for the cytotoxicity studies with HepG2 and HEK293 cell lines. The viability values for the assay performed with the PC12 Tet-Off-SOD1^G85R YFP cells were normalised for the vehicle (0.1 % DMSO) and (−)-MG-132 alone treatments, which represented respectively the […] viability for the assay. […]

| Compound | EC50 [1] | microsomal CLint at 1.1 μM [2] | half-life at 1.1 μM [2] | EC50 [3] |
| --- | --- | --- | --- | --- |
| CC(C)(Oc1cc(C(F)(F)F)cc(C(F)(F)F)c1)C1CC(=O)CC(=O)C1 [Compound 20, 5-(2-(3,5-bis(trifluoromethyl)phenoxy)propan-2-yl)cyclohexane-1,3-dione] | 2630 ± 270 nM | 35.7 ± 4.7 µL/min/mg | 40.7 ± 3.8 min | 2470 ± 150 nM |
| O=C1CC(=O)CC(/C=C/c2cc(C(F)(F)F)cc(C(F)(F)F)c2)C1 [Compound 6, (E)-5-(3,5-Bis(trifluoromethyl)styryl)cyclohexane-1,3-dione] | 2060 ± 240 nM | 67.3 ± 0.9 µL/min/mg | 20.7 ± 0.3 min | 1980 ± 250 nM |

From PMC12648443, “Modifications of NU-9, a potent protein aggregation inhibitor. Properties and activity in a cellular model of amyotrophic lateral sclerosis” (Bioorganic chemistry, 2025)
